According to PubChem BioAssay AID330 (DTP/NCI, 2004):
“And” between values parts separate entries of the source, which are not always exact repeats. Equal entries are not always repeated. Inconclusive results and toxic doses are left out. The calls were made as follows: active = survival T/C of 150% or more; inactive = T/C below 125% in these data.

Test system: P388 leukemia ip, CD2F1 mice, survival T/C
Assay: NCI In Vivo Anticancer Drug Screen. Data for tumor model P388 Leukemia (intraperitoneal) in CD2F1 (CDF1) mice
Conditions: endpoint: median survival time, higher = longer survival
Summary of the method: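 Mice carrying the transplanted tumor received test compound or vehicle. Survival was recorded in each group, and the value is the treated-group measurement divided by that of the vehicle-treated control group.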

[1] = dose: 50.0 mg/kg/injection, schedule: Q01DX005 (ip), vehicle: Klucel (hydroxypropylcellulose) (HPC)
[2] = dose: 100.0 mg/kg/injection, schedule: Q01DX005 (ip), vehicle: Klucel (hydroxypropylcellulose) (HPC)
[3] = dose: 200.0 mg/kg/injection, schedule: Q01DX005 (ip), vehicle: Klucel (hydroxypropylcellulose) (HPC)
[4] = dose: 50.0 mg/kg/injection, schedule: Q01DX005 (ip), vehicle: saline
[5] = dose: 100.0 mg/kg/injection, schedule: Q01DX005 (ip), vehicle: saline
[6] = dose: 100.0 mg/kg/injection, schedule: Q01DX009 (ip), vehicle: saline
[7] = dose: 12.5 mg/kg/injection, schedule: Q01DX005 (ip), vehicle: saline with Tween-80
[8] = dose: 25.0 mg/kg/injection, schedule: Q01DX005 (ip), vehicle: saline with Tween-80
[9] = dose: 50.0 mg/kg/injection, schedule: Q01DX005 (ip), vehicle: saline with Tween-80

Measured: T/C

COc1ccc(C=C2C(=O)N(c3ccccc3)C(=S)N(c3ccccc3)C2=O)cc1
inactive: [1] 94 % of control | [2] 90 % of control | [3] 88 % of control

CCCCCC(O)/C=C/[C@H]1C(O)CC2O/C(=C\CCCC(=O)O)C[C@@H]21 (stereo partly specified)
inactive: [4] 102 % of control | [5] 100 % of control | dose: 200.0 mg/kg/injection, schedule: Q01DX005 (ip), vehicle: saline 95 % of control

CC1=NNC(C)(C)C1
inactive: [6] 105 % of control | dose: 200.0 mg/kg/injection, schedule: Q01DX009 (ip), vehicle: saline 105 % of control | dose: 400.0 mg/kg/injection, schedule: Q01DX009 (ip), vehicle: saline 110 % of control

CC(=O)Oc1ccc(/C=N\N(C)C)cc1
inactive: dose: 50.0 mg/kg/injection, schedule: Q01DX009 (ip), vehicle: saline 102 % of control | [6] 95 % of control

C=C1C(=O)OC2C1CCC1(C)CCCC(=C)C21 (stereo unspecified)
inactive: dose: 2.5 mg/kg/injection, schedule: Q01DX009 (ip), vehicle: Klucel (hydroxypropylcellulose) (HPC) 93 % of control | dose: 5.0 mg/kg/injection, schedule: Q01DX009 (ip), vehicle: Klucel (hydroxypropylcellulose) (HPC) 96 % of control | dose: 10.0 mg/kg/injection, schedule: Q01DX009 (ip), vehicle: Klucel (hydroxypropylcellulose) (HPC) 92 % of control | dose: 20.0 mg/kg/injection, schedule: Q01DX009 (ip), vehicle: Klucel (hydroxypropylcellulose) (HPC) 96 % of control

CN1c2ccccc2N=Cc2c1oc1ccc3ccccc3c1c2=O
inactive: dose: 12.5 mg/kg/injection, schedule: Q01DX005 (ip), vehicle: Klucel (hydroxypropylcellulose) (HPC) 96 % of control | dose: 25.0 mg/kg/injection, schedule: Q01DX005 (ip), vehicle: Klucel (hydroxypropylcellulose) (HPC) 103 % of control | [1] 92 % of control

CC(/C=C/c1ccccc1)=N\O
inactive: [1] 97 % of control | [2] 99 % of control | [3] 97 % of control

COc1cc(O)c2c(c1N)C(=O)c1ccccc1C2=O
inactive: [1] 105 % of control | [2] 106 % of control | [3] 101 % of control

CC(/C=N\NC(N)=O)=N/N=C(N)N
inactive: dose: 100.0 mg/kg/injection, schedule: Q04DX003 (ip), vehicle: saline 94 % of control | dose: 200.0 mg/kg/injection, schedule: Q04DX003 (ip), vehicle: saline 94 % of control | dose: 400.0 mg/kg/injection, schedule: Q04DX003 (ip), vehicle: saline 92 % of control

Cc1ccc(S(=O)(=O)N/N=C/c2ccc(Cl)cc2)cc1
inactive: [7] 102 % of control | [8] 104 % of control and 108 % of control | [9] 100 % of control and 106 % of control and 107 % of control | dose: 200.0 mg/kg/injection, schedule: Q01DX005 (ip), vehicle: saline with Tween-80 121 % of control

OC1CC2CCC(N2)C1c1ccccc1 (stereo unspecified)
inactive: [7] 94 % of control | [8] 86 % of control | [9] 101 % of control and 93 % of control

CN1CCN(C)B1N=S=NB1N(C)CCN1C
inactive: dose: 12.5 mg/kg/injection, schedule: Q01DX005 (ip), vehicle: olive oil, sesame oil, peanut oil 100 % of control and 105 % of control | dose: 25.0 mg/kg/injection, schedule: Q01DX005 (ip), vehicle: olive oil, sesame oil, peanut oil 105 % of control and 96 % of control | dose: 50.0 mg/kg/injection, schedule: Q01DX005 (ip), vehicle: olive oil, sesame oil, peanut oil 104 % of control and 97 % of control | dose: 100.0 mg/kg/injection, schedule: Q01DX005 (ip), vehicle: olive oil, sesame oil, peanut oil 102 % of control and 103 % of control

O=C(O)/C=C/c1c2ccc(=O)c(O)c-2oc2c(O)c(O)ccc12
inactive: dose: 60.0 mg/kg/injection, schedule: Q01DX005 (ip), vehicle: saline with Tween-80 93 % of control | dose: 120.0 mg/kg/injection, schedule: Q01DX005 (ip), vehicle: saline with Tween-80 93 % of control | dose: 240.0 mg/kg/injection, schedule: Q01DX005 (ip), vehicle: saline with Tween-80 92 % of control

O=C(Nc1ccccc1C1=NCCN1)Nc1ccccc1C1=NCCN1
inactive: [4] 100 % of control | [5] 106 % of control

CCOC(=O)Nc1ccc2c3c(cccc13)-c1ccccc1-2
inactive: [1] 90 % of control | [2] 97 % of control | [3] 91 % of control
